Source: PubChem BioAssay (NCI)
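Cultured in 96-well plates, cells were exposed to test compound for 48 hours across five concentrations. At the TGI there is no net growth.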

How the values were obtained:
Experiment in all cases: NCI anticancer screen, dose series, 48 h
A498 renal = test system: A498 renal
A549 NSCLC = test system: A549 NSCLC
HOP-62 NSCLC = test system: HOP-62 NSCLC
HOP-92 NSCLC = test system: HOP-92 NSCLC
HT29 colon = test system: HT29 colon
IGROV1 ovarian = test system: IGROV1 ovarian
KM12 colon = test system: KM12 colon
MALME-3M melanoma = test system: MALME-3M melanoma
OVCAR-8 ovarian = test system: OVCAR-8 ovarian
RPMI-8226 leukemia = test system: RPMI-8226 leukemia
SK-MEL-2 melanoma = test system: SK-MEL-2 melanoma
TK-10 renal = test system: TK-10 renal
UACC-62 melanoma = test system: UACC-62 melanoma
UO-31 renal = test system: UO-31 renal

Compound	TGI (A498 renal)	TGI (A549 NSCLC)	TGI (HOP-62 NSCLC)	TGI (HOP-92 NSCLC)	TGI (HT29 colon)	TGI (IGROV1 ovarian)	TGI (KM12 colon)	TGI (MALME-3M melanoma)	TGI (OVCAR-8 ovarian)	TGI (RPMI-8226 leukemia)	TGI (SK-MEL-2 melanoma)	TGI (TK-10 renal)	TGI (UACC-62 melanoma)	TGI (UO-31 renal)
Cn1c(N/N=C/c2ccccc2)nc(-c2ccc3c(c2)OCO3)c(C#N)c1=O	> 100 µM	> 100 µM	> 100 µM	67.2 µM	> 100 µM	> 100 µM	> 100 µM	> 100 µM	90.6 µM	> 100 µM	> 100 µM	> 100 µM	> 100 µM	> 100 µM
COc1ccccc1C1C2=C(COC2=O)Oc2cc3c(cc21)OCO3 (stereo not given)	15.4 µM	> 100 µM	> 100 µM	97.7 µM	8.53 µM	> 100 µM	> 100 µM	> 100 µM	> 56.2 µM	> 59.2 µM	99.7 µM	> 90.5 µM	> 100 µM	> 33.5 µM
CC(=O)N1C(C(=O)NN2CCOCC2)CSC1c1ccccc1 (stereo not given)	> 100 µM	> 100 µM	> 100 µM	> 100 µM	> 100 µM	> 100 µM	> 100 µM	> 100 µM	> 100 µM	> 100 µM	> 100 µM	> 100 µM	> 100 µM	> 100 µM
CN(C(=O)[C@H](NC(=O)OCc1ccccc1)c1ccccc1)C1CCCCC1N1CCCC1 (stereo not given in full)	> 100 µM	> 100 µM	> 100 µM	> 100 µM	> 100 µM	> 100 µM	> 100 µM	> 100 µM	> 100 µM	> 100 µM	> 100 µM	> 100 µM	> 100 µM	> 100 µM
CC12NC(=C(C#N)C#N)C(C#N)=C3NC(N)=C(C#N)C(=C31)Oc1ccccc12 (stereo not given)	> 100 µM	> 100 µM	> 38.3 µM	> 74.1 µM	> 100 µM	> 100 µM	> 100 µM	> 100 µM	> 100 µM	> 100 µM	> 80.9 µM	> 100 µM	> 100 µM	> 100 µM
O=C(O)c1cc(N=Nc2ccc([N+](=O)[O-])cc2)ccc1O	46.6 µM	> 100 µM	> 100 µM	56.9 µM	> 100 µM	> 100 µM	> 100 µM	> 100 µM	> 100 µM	53.3 µM	78.8 µM	70 µM	> 100 µM	67.6 µM
O=c1oc2ccc([N+](=O)[O-])cc2nc1/C=C(\O)c1ccccc1	> 100 µM	> 100 µM	> 100 µM	> 100 µM	> 100 µM	> 100 µM	> 100 µM	> 100 µM	> 100 µM	> 100 µM	98.2 µM	93.4 µM	> 100 µM	> 100 µM
NCCOc1ccc(/C(=C(/Cl)c2ccccc2)c2ccccc2)cc1	34.1 µM	31.5 µM	32.7 µM	16.8 µM	7.81 µM	29.9 µM	16.7 µM	24.3 µM	29.6 µM	11 µM	29.1 µM	26.2 µM	25.3 µM	21.4 µM
Oc1ccc(-c2c3ccccc3c(-c3ccc(O)cc3)c3ccccc23)cc1	> 100 µM	> 100 µM	> 100 µM	> 100 µM	> 100 µM	> 100 µM	> 100 µM	> 100 µM	> 100 µM	> 100 µM	> 100 µM	> 100 µM	> 100 µM	> 100 µM
COc1ccc(C=Nc2ccc(-c3nc4ccccc4s3)cc2)cc1OC	46.2 µM	> 100 µM	39.2 µM	53.5 µM	> 100 µM	86.4 µM	> 100 µM	89.2 µM	> 100 µM	> 100 µM	48.1 µM	69 µM	47.2 µM	> 100 µM
